In patent publication US10323036B2 (Nimbus Lakshmi, Inc., priority 2016, dated 2019):
Like-named read-outs stand apart in the source and are kept apart here.

Target: human TYK2 (JH2domain-pseudokinase) (Homo sapiens (Human), UniProt P29597)
Assay: TYK2 JH2 Domain Binding Assay (KINOMEscan)
Conditions: read-out: JH2 Kd
[1] = Table 5, Tyk2 JH2 Domain Binding Assay

Sequence of human TYK2 (JH2domain-pseudokinase) (P29597 556-888): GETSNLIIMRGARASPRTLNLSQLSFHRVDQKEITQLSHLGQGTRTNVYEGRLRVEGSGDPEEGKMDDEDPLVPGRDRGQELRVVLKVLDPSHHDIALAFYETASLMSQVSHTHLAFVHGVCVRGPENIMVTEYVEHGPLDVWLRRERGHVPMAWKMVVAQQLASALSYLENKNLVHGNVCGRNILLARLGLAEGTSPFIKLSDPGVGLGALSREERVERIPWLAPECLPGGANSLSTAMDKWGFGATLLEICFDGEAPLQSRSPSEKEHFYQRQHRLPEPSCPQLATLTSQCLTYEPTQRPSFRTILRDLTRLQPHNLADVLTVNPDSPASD

Row | Structure (SMILES) | Kd (Table 4, JH2 binding assay) [nM] | Kd [1] [nM]
1 | COc1c(F)cccc1Nc1cc(Nc2cc(C)ccn2)nc2[nH]n(C)c(=O)c12 [Compound I-83, 4-((3-fluoro-2-methoxyphenyl)amino)-2-methyl-6-((4-methylpyridin-2-yl)amino)-1,2-dihydro-3H-pyrazolo[3,4-b]pyridin-3-one] | 1 to 10 | –
2 | Cn1[nH]c2nc(NC(=O)C3CC3(F)F)cc(Nc3ccc(C4CC4)cc3S(C)(=O)=O)c2c1=O (stereo not shown) [Compound I-239, N-(4-((4-cyclopropyl-2-(methylsulfonyl)phenyl)amino)-2-methyl-3-oxo-2,3-dihydro-1H-pyrazolo[3,4-b]pyridin-6-yl)-2,2-difluorocyclopropane-1-carboxamide] | 0.1 to 0.5 | –
3 | COc1c(F)cccc1Nc1cc(Nc2cccc(C#N)n2)nc2[nH]n(C)c(=O)c12 [Compound I-81, 6-((4-((3-fluoro-2-methoxyphenyl)amino)-2-methyl-3-oxo-2,3-dihydro-1H-pyrazolo[3,4-b]pyridin-6-yl)amino)picolinonitrile] | 0.1 to 0.5 | –
4 | COc1c(Cl)cccc1Nc1cc(Nc2ccc(C(=O)N3CCCC3)c(C(F)(F)F)n2)nc2[nH]n(C)c(=O)c12 [Compound I-128, 4-((3-chloro-2-methoxyphenyl)amino)-2-methyl-6-((5-(pyrrolidine-1-carbonyl)-6-(trifluoromethyl)pyridin-2-yl)amino)-1,2-dihydro-3H-pyrazolo[3,4-b]pyridin-3-one] | 0.1 to 0.5 | –
5 | CN(c1ccccc1Nc1cc(Nc2cnc3c(n2)CCC3)nc2[nH]n(C)c(=O)c12)S(C)(=O)=O [Compound I-225, N-(2-((6-((6,7-dihydro-5H-cyclopenta[b]pyrazin-2-yl)amino)-2-methyl-3-oxo-2,3-dihydro-1H-pyrazolo[3,4-b]pyridin-4-yl)amino)phenyl)-N-methylmethanesulfonamide] | < 0.1 | –
6 | COCc1ccnc(Nc2cc(Nc3cccc(-c4nnn(C)n4)c3OC)c(-c3ncc(Cl)s3)cn2)c1 [VIII-17, 5-(5-chlorothiazol-2-yl)-N4-(2-methoxy-3-(2-methyl-2H-tetrazol-5-yl)phenyl)-N2-(4-(methoxymethyl)pyridin-2-yl)pyridine-2,4-diamine] | – | 0.1 to 1
7 | CN(c1cc(C2CCC2)ccc1Nc1cc(NC(=O)[C@@H]2C[C@@H]2F)nc2[nH]n(C)c(=O)c12)S(C)(=O)=O [Compound I-236, (1S,2S)-N-(4-((4-cyclobutyl-2-(N-methylmethylsulfonamido)phenyl)amino)-2-methyl-3-oxo-2,3-dihydro-1H-pyrazolo[3,4-b]pyridin-6-yl)-2-fluorocyclopropane-1-carboxamide] | > 10 | –
8 | Cn1[nH]c2nc(Nc3cccc(C(F)(F)F)n3)cc(Nc3ccc(Cl)cc3S(C)(=O)=O)c2c1=O [Compound I-209, 4-((4-chloro-2-(methylsulfonyl)phenyl)amino)-2-methyl-6-((6-(trifluoromethyl)-pyridin-2-yl)amino)-1,2-dihydro-3H-pyrazolo[3,4-b]pyridin-3-one] | 0.5 to 1 | –
9 | COCc1ccnc(Nc2cc(Nc3cccc(F)c3OC)c3c(=O)n(C)[nH]c3n2)c1 [Compound I-76, 4-((3-fluoro-2-methoxyphenyl)amino)-6-((4-(methoxymethyl)pyridine-2-yl)amino)-2-methyl-1,2-dihydro-3H-pyrazolo[3,4-b]pyridin-3-one] | 1 to 10 | –
10 | Cc1ccc(Nc2cc(Nc3ccc(Cl)cc3S(C)(=O)=O)c3c(=O)n(C)[nH]c3n2)nc1C(F)(F)F [Compound I-208, 4-((4-chloro-2-(methylsulfonyl)phenyl)amino)-2-methyl-6-((5-methyl-6-(trifluoromethyl)pyridin-2-yl)amino)-1,2-dihydro-3H-pyrazolo[3,4-b]pyridin-3-one] | 0.5 to 1 | –
11 | Cn1[nH]c2nc(NC(=O)C3CC3)cc(Nc3ccc(C4CC4)cc3S(C)(=O)=O)c2c1=O [Compound I-201, N-(4-((4-cyclopropyl-2-(methylsulfonyl)phenyl)amino)-2-methyl-3-oxo-2,3-dihydro-1H-pyrazolo[3,4-b]pyridin-6-yl)cyclopropanecarboxamide] | < 0.1 | –
12 | COc1c(Nc2cc(NC(=O)C3CC3)ncc2-n2cc(CO)cn2)cccc1-c1ncn(C)n1 [VIII-10, N-(5-(4-(hydroxymethyl)-1H-pyrazol-1-yl)-4-((2-methoxy-3-(1-methyl-1H-1,2,4-triazol-3-yl)phenyl)amino)pyridin-2-yl)cyclopropanecarboxamide] | – | > 100
13 | COc1c(Nc2cc(Nc3cccc(C#N)n3)nc3[nH]n(C)c(=O)c23)cccc1-c1nnn(C)n1 [Compound I-28, 6-((4-((2-methoxy-3-(2-methyl-2H-tetrazol-5-yl)phenyl)amino)-2-methyl-3-oxo-2,3-dihydro-1H-pyrazolo[3,4-b]pyridin-6-yl)amino)picolinonitrile] | 1 to 10 | –
14 | COc1c(Nc2cc(Nc3cccc(C#N)n3)ncc2-c2ncc(Cl)s2)cccc1-c1nnn(C)n1 [VIII-15, 6-((5-(5-chlorothiazol-2-yl)-4-((2-methoxy-3-(2-methyl-2H-tetrazol-5-yl)phenyl)amino)pyridin-2-yl)amino)picolinonitrile] | – | 1 to 10
15 | COc1c(Nc2cc(Nc3cc(C#N)ncn3)nc3[nH]n(C)c(=O)c23)cccc1-c1nnn(C)n1 [Compound I-29, 6-((4-((2-methoxy-3-(2-methyl-2H-tetrazol-5-yl)phenyl)amino)-2-methyl-3-oxo-2,3-dihydro-1H-pyrazolo[3,4-b]pyridin-6-yl)amino)pyrimidine-4-carbonitrile] | 0.1 to 0.5 | –
16 | COc1c(C#N)cccc1Nc1cc(Nc2cc(C)c(F)cn2)nc2[nH]n(C)c(=O)c12 [Compound I-37] | > 10 | –

Row | Structure (SMILES) | Kd (Table 4, JH2 binding assay) [nM] | Kd [1] [nM]
17 | COc1c(Nc2cc(Nc3ccc(C)nn3)nc3[nH]n(C)c(=O)c23)cccc1-c1nnn(C)n1 [Compound I-10, 4-((2-methoxy-3-(2-methyl-2H-tetrazol-5-yl)phenyl)amino)-2-methyl-6-((6-methylpyridazin-3-yl)amino)-1,2-dihydro-3H-pyrazolo[3,4-b]pyridin-3-one] | < 0.1 | –
18 | COc1c(Nc2cc(Nc3cc(C)c(F)cn3)nc3[nH]n(C)c(=O)c23)cccc1-c1ccn(C)n1 [Compound I-120, 6-((5-fluoro-4-methylpyridin-2-yl)amino)-4-((2-methoxy-3-(1-methyl-1H-pyrazol-3-yl)phenyl)amino)-2-methyl-1,2-dihydro-3H-pyrazolo[3,4-b]pyridin-3-one] | 1 to 10 | –
19 | Cc1ncc(Nc2cc(Nc3ccc(C4CC4)cc3S(C)(=O)=O)c3c(=O)n(C)[nH]c3n2)nc1C [Compound I-211, 4-((4-cyclopropyl-2-(methylsulfonyl)phenyl)amino)-6-((5,6-dimethylpyrazin-2-yl)amino)-2-methyl-1,2-dihydro-3H-pyrazolo[3,4-b]pyridin-3-one] | 0.5 to 1 | –
20 | COc1c(Nc2cc(Nc3cc(C)c(F)cn3)nc3[nH]n(C)c(=O)c23)cccc1-c1ncn(C)n1 [Compound I-21, 6-((5-fluoro-4-methylpyridin-2-yl)amino)-4-((2-methoxy-3-(1-methyl-1H-1,2,4-triazol-3-yl)phenyl)amino)-2-methyl-1,2-dihydro-3H-pyrazolo[3,4-b]pyridin-3-one] | 0.1 to 0.5 | –
21 | COc1cc(C(=O)N2CCC2)ccc1Nc1cc(NC(=O)C2CC2)nc2[nH]n(C)c(=O)c12 [Compound I-82, N-(4-((4-(azetidine-1-carbonyl)-2-methoxyphenyl)amino)-2-methyl-3-oxo-2,3-dihydro-1H-pyrazolo[3,4-b]pyridin-6-yl)cyclopropanecarboxamide] | 0.1 to 0.5 | –
22 | CN(c1cc(C2CCCOC2)ccc1Nc1cc(NC(=O)C2CC2)nc2[nH]n(C)c(=O)c12)S(C)(=O)=O (stereo not shown) [Compound I-240] | 0.1 to 0.5 | –
23 | COc1c(C#N)cccc1Nc1cc(NC(=O)C2CC2)nc2[nH]n(C)c(=O)c12 [Compound I-33] | > 10 | –
24 | CN(c1cc(F)c(F)cc1Nc1cc(NC(=O)C2CC2)nc2[nH]n(C)c(=O)c12)S(C)(=O)=O [Compound I-230, N-(4-((4,5-difluoro-2-(N-methylmethylsulfonamido)phenyl)amino)-2-methyl-3-oxo-2,3-dihydro-1H-pyrazolo[3,4-b]pyridin-6-yl)cyclopropanecarboxamide] | 0.5 to 1 | –
25 | COc1c(Nc2cc(NC(=O)C3CC3)nc3[nH]n(C)c(=O)c23)cccc1-c1ncnn1C [Compound I-54, N-(4-((2-methoxy-3-(1-methyl-1H-1,2,4-triazol-5-yl)phenyl)amino)-2-methyl-3-oxo-2,3-dihydro-1H-pyrazolo[3,4-b]pyridin-6-yl)cyclopropanecarboxamide] | 0.5 to 1 | –
26 | COCc1ccc(Nc2cc(Nc3ccc(OC)c(C(F)(F)F)n3)nc3[nH]n(C)c(=O)c23)c(OC)c1 [Compound I-104, 4-((2-methoxy-4-(methoxymethyl)phenyl)amino)-6-((5-methoxy-6-(trifluoromethyl)pyridin-2-yl)amino)-2-methyl-1,2-dihydro-3H-pyrazolo[3,4-b]pyridin-3-one] | > 10 | –
27 | COc1c(F)cccc1Nc1cc(Nc2ccc(N3CCCCC3)cn2)nc2[nH]n(C)c(=O)c12 [Compound I-77, 4-((3-fluoro-2-methoxyphenyl)amino)-2-methyl-6-((5-(piperidin-1-yl)pyridin-2-yl)amino)-1,2-dihydro-3H-pyrazolo[3,4-b]pyridin-3-one] | 1 to 10 | –
28 | COc1c(Nc2cc(Nc3cccc(C4CC4)n3)nc3[nH]n(C)c(=O)c23)cccc1-c1nnn(C)n1 [Compound I-65, 6-((6-cyclopropylpyridin-2-yl)amino)-4-((2-methoxy-3-(2-methyl-2H-tetrazol-5-yl)phenyl)amino)-2-methyl-1,2-dihydro-3H-pyrazolo[3,4-b]pyridin-3-one] | 0.1 to 0.5 | –
29 | COc1c(Nc2cc(Nc3ccc(N4CCOCC4)cn3)nc3[nH]n(C)c(=O)c23)cccc1-c1ncn(C)n1 [Compound I-20, 4-((2-methoxy-3-(1-methyl-1H-1,2,4-triazol-3-yl)phenyl)amino)-2-methyl-6-((5-morpholinopyridin-2-yl)amino)-1,2-dihydro-3H-pyrazolo[3,4-b]pyridin-3-one] | 0.1 to 0.5 | –
30 | COCc1ccnc(Nc2cc(Nc3cccc(C#N)c3OC)c3c(=O)n(C)[nH]c3n2)c1 [Compound I-35] | > 10 | –
31 | COc1c(Nc2cc(Nc3ccccn3)nc3[nH]n(C)c(=O)c23)cccc1-c1nnn(C)n1 [Compound I-4, 4-((2-methoxy-3-(2-methyl-2H-tetrazol-5-yl)phenyl)amino)-2-methyl-6-(pyridin-2-ylamino)-1,2-dihydro-3H-pyrazolo[3,4-b]pyridin-3-one] | 0.1 to 0.5 | –
